≈ marks a conversion by molar mass, not a printed value. Calls of active or inactive are those of the source. The calls are words filed in the database; no cut-off is given here.
Legend:
[1] = Aqueous solubility at pH 7.4; format: physicochemical
[2] = Permeability across artificial membrane; format: ADME; conditions: PAMPA; read-out: permeability
[3] = Metabolic stability in rat liver microsomes assessed as half life; format: ADME, Microsome
[4] = target: Voltage-gated inwardly rectifying potassium channel KCNH2 (Homo sapiens, UniProt Q12809); assay: Inhibition of human ERG potassium channel at 2 uM
[5] = Tmax in castrated rat at 20 mg/kg, po; format: ADME, organism-based; set-up: dose 20 mg/kg, route oral; conditions: male, in vivo
[6] = Clearance in castrated rat plasma at 1 mg/kg, iv; format: ADME, organism-based; set-up: dose 1 mg/kg, route intravenous; conditions: male
[7] = target: Opioid receptors; mu/kappa/delta (Homo sapiens, UniProt P41145+P41143+P35372); assay: Inhibition of human non-selective opioid receptor
[8] = target: T1, Substance-K receptor (Homo sapiens, UniProt P21452); assay: Inhibition of human neurokinin NK2 receptor
T1 sequence (P21452 whole entry): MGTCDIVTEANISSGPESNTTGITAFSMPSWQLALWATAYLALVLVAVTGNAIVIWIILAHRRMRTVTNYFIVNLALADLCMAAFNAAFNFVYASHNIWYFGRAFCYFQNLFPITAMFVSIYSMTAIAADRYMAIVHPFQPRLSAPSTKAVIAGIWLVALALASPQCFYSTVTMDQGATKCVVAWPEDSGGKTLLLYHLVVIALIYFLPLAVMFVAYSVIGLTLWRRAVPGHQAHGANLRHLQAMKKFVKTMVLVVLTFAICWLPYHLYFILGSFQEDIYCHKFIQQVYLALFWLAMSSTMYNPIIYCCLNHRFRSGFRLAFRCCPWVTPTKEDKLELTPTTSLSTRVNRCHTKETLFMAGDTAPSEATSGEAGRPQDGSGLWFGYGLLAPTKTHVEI

[9] = target: T2, Gonadotropin-releasing hormone receptor (Homo sapiens, UniProt P30968); assay: Displacement of [D-Trp6]-GnRH from human recombinant GnRH receptor
T2 sequence (P30968 whole entry): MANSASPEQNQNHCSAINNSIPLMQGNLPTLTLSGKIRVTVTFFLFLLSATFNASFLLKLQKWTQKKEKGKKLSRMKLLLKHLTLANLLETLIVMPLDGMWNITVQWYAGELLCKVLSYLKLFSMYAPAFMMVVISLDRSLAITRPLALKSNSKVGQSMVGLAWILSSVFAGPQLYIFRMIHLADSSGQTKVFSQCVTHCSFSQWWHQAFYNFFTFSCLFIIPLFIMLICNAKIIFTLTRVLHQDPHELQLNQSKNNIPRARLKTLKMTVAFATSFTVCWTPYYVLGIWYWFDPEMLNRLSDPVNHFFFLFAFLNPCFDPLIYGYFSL

[10] = target: T3, Gonadotropin-releasing hormone receptor (Rattus norvegicus, UniProt P30969); assay: Antagonist activity at rat recombinant GnRH receptor assessed as inhibition of [D-Trp6]-GnRH-stimulated LH release from rat pituitary cells; format: functional, cell-based, Pituitary gland cell
T3 sequence (P30969 whole entry): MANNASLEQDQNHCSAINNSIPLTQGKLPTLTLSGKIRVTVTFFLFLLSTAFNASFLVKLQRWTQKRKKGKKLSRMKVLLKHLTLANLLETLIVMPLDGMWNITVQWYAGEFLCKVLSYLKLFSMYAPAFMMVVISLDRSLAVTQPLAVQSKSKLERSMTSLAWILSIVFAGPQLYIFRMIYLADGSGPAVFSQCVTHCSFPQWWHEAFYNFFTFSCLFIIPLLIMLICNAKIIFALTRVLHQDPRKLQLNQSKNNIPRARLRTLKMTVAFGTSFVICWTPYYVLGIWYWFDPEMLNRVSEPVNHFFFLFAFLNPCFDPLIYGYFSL

[11] = AUC (0 to infinity) in castrated rat at 1 mg/kg, iv; format: ADME, organism-based; set-up: time infinity, dose 1 mg/kg, route intravenous; conditions: male, plasma
[12] = Volume of distribution at steady state in castrated rat at 1 mg/kg, iv; format: ADME, organism-based; set-up: dose 1 mg/kg, route intravenous; conditions: male, in vivo, read-out: Vdss
[13] = Oral bioavailability in castrated rat at 20 mg/kg; format: ADME, organism-based; conditions: male, in vivo
[14] = Half life in castrated rat at 1 mg/kg, iv; format: ADME, organism-based; set-up: dose 1 mg/kg, route intravenous; conditions: male, in vivo
[15] = system: Rattus norvegicus; assay: Reduction of serum LH level in castrated rat at 30 mg/kg, po after 1 hr; format: functional, organism-based; set-up: dose 30 mg/kg
[16] = target: Histamine H2 receptor (Homo sapiens, UniProt P25021); assay: Inhibition of human histamine H2 receptor
[17] = target: T2, Gonadotropin-releasing hormone receptor; assay: Antagonist activity at human GnRH receptor assessed as inhibition of [D-Trp6]-GnRH-stimulated [3H]IP […]; format: functional
[18] = Cmax in castrated rat at 20 mg/kg, po; format: ADME, organism-based; set-up: dose 20 mg/kg, route oral; conditions: male, in vivo
[19] = target: T3, Gonadotropin-releasing hormone receptor; assay: Displacement of [D-Trp6]-GnRH from rat recombinant GnRH receptor
[20] = system: Rattus norvegicus; assay: Reduction of serum LH level in castrated rat at 30 mg/kg, po after 6 hr; format: functional, organism-based; set-up: dose 30 mg/kg
[21] = Half life in castrated rat at 20 mg/kg, po; format: ADME, organism-based; set-up: dose 20 mg/kg, route oral; conditions: male, in vivo
[22] = AUC (0 to infinity) in castrated rat at 20 mg/kg, po; format: ADME, organism-based; set-up: time infinity, dose 20 mg/kg, route oral; conditions: male, plasma

Chain of Voltage-gated inwardly rectifying potassium channel KCNH2 (Q12809 whole entry): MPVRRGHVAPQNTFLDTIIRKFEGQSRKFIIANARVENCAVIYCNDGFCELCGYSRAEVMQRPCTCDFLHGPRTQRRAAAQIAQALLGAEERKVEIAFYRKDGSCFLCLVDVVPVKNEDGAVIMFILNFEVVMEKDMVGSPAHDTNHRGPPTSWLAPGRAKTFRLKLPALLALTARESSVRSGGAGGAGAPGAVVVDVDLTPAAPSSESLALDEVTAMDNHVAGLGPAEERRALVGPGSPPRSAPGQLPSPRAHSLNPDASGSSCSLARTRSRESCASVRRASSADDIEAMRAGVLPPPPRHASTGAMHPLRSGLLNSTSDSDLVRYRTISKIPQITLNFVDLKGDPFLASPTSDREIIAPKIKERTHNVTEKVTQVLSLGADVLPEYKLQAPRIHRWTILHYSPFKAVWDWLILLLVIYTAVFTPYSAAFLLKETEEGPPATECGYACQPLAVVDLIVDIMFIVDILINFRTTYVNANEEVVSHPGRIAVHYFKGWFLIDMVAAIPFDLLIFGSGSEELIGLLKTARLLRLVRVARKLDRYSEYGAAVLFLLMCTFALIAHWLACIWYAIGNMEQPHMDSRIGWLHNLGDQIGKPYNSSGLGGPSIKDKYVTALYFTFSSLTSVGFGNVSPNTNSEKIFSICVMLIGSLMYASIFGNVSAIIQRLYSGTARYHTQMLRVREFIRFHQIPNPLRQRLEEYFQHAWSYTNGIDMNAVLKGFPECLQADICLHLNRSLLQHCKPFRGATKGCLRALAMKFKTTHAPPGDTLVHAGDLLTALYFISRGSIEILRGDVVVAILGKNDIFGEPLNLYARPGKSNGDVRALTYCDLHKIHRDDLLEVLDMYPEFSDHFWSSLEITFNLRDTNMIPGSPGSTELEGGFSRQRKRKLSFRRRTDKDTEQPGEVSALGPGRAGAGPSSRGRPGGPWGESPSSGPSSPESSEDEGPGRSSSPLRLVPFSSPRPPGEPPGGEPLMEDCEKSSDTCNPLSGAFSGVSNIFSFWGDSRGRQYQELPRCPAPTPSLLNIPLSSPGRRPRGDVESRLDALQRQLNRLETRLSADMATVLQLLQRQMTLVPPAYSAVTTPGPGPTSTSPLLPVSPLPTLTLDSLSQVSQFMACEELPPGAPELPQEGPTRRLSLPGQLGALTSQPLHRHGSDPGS
Chain of Histamine H2 receptor (P25021 whole entry): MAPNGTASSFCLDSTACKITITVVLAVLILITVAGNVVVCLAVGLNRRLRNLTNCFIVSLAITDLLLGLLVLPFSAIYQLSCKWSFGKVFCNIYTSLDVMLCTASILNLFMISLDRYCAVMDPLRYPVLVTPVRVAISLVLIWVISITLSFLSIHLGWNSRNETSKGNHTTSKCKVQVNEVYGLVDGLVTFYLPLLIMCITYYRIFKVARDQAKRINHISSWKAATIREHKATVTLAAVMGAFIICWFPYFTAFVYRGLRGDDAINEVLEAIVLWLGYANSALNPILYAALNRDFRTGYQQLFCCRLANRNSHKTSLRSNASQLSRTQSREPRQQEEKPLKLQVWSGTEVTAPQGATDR

In the case of `CC(C)(C)c1ccc(-c2nc3c(N4CCN(Cc5ccc6[nH]c(=O)c(=O)[nH]c6c5)CC4)cccc3[nH]2)cc1`, the solubility [1] is reported as less than 1 µg/mL, the Papp [2] is reported as less than 0.1 ×10⁻⁶ cm/s and the half-life [3] is reported as 14 min.
With `CC(C)(C)c1ccc(-c2nc3c(N4CCN(Cc5ccc6nccnc6c5)CC4)cccc3[nH]2)cc1` the Activity [4] was “Not Active”, the Tmax [5] was 120 min and the clearance [6] was 38 mL/min/kg. It also gave a Papp [2] of 0.23 ×10⁻⁶ cm/s, a Ki [7] of 550 nM and a Ki [8] of 330 nM. For the same compound, the IC50 [9] was 12 nM, the IC50 [10] was 350 nM and the AUC(0-inf) [11] was 447 ng·h/mL. It also gave a Vd [12] of 6.1 L/kg, a bioavailability [13] of 74% and a half-life [14] of 162 min. For the same compound, the Activity [15] was “Active”, the Ki [16] was 850 nM and the IC50 [17] was 28 nM. It also gave a half-life [3] of 16 min, a Cmax [18] of 1330 ng/mL and an IC50 [19] of 71 nM. The Activity [20] was “Active”, the half-life [21] was 222 min and the AUC(0-inf) [22] was 6640 ng·h/mL.
In the case of `CC(C)(C)c1ccc(-c2nc3c(N4CCN(Cc5ccc6ncccc6c5)CC4)cccc3[nH]2)cc1`, the solubility [1] is reported as 2 µg/mL (≈ 4.2 µM), the Papp [2] is reported as 0.4 ×10⁻⁶ cm/s and the IC50 [9] is reported as 21 nM. It also gave an IC50 [10] of 830 nM and an IC50 [17] of 64 nM.
For `CC(C)(C)c1ccc(-c2nc3c(N4CCN(Cc5ccc6cccnc6c5)CC4)cccc3[nH]2)cc1`, the solubility [1] was 4 µg/mL (≈ 8.41 µM), the Papp [2] was 1.5 ×10⁻⁶ cm/s and the IC50 [9] was 24 nM. The IC50 [10] was 540 nM and the IC50 [17] was 140 nM.
Work on `CC(C)(C)c1ccc(-c2nc3c(N4CCN(Cc5ccc6c(c5)NCC(=O)N6)CC4)cccc3[nH]2)cc1` yielded a solubility [1] of 1 µg/mL (≈ 2.02 µM), a Papp [2] of 0.05 ×10⁻⁶ cm/s and an IC50 [9] of 16 nM. The IC50 [10] was 120 nM, the IC50 [17] was 16 nM and the half-life [3] was 3 min. It also gave an IC50 [19] of 87 nM.
In the case of `CC(C)(C)c1ccc(-c2nc3c(N4CCN(Cc5cccc6nccnc56)CC4)cccc3[nH]2)cc1`, the IC50 [9] is reported as 26 nM, the IC50 [10] is reported as 5900 nM and the IC50 [17] is reported as 400 nM.
Work on `CC(C)(C)c1ccc(-c2nc3c(N4CCN(Cc5ccc6[nH]c(=O)c(=O)n(Cc7cccnc7)c6c5)CC4)cccc3[nH]2)cc1` yielded a solubility [1] of less than 1 µg/mL, a Papp [2] of 0.05 ×10⁻⁶ cm/s and an IC50 [9] of 5.6 nM. It also gave an IC50 [10] of 69 nM, an IC50 [17] of 14 nM and a half-life [3] of 10 min. For the same compound, the IC50 [19] was 47 nM.
In the case of `Cn1c(=O)c(=O)[nH]c2ccc(CN3CCN(c4cccc5[nH]c(-c6ccc(C(C)(C)C)cc6)nc45)CC3)cc21`, the solubility [1] is reported as less than 1 µg/mL, the IC50 [9] is reported as 3.5 nM and the IC50 [10] is reported as 44 nM. It also gave an IC50 [17] of 7.4 nM and an IC50 [19] of 17 nM.
For `CC(C)(C)c1ccc(-c2nc3c(N4CCN(Cc5cnc6[nH]c(=O)c(=O)[nH]c6c5)CC4)cccc3[nH]2)cc1`, the solubility [1] was 4 µg/mL (≈ 7.85 µM), the Papp [2] was less than 0.1 ×10⁻⁶ cm/s and the IC50 [9] was 1.8 nM. It also gave an IC50 [10] of 240 nM, an IC50 [17] of 9.7 nM and a half-life [3] of 30 min. For the same compound, the IC50 [19] was 33 nM.
